Source: US20070154464A1, “Methods for screening for agents capable of modulating t lymphocyte function in response to a herpes simplex virus-infected cell” (priority 2003, published 2007)
Read-outs that look alike come from different tables or passages of the source.

How the values were obtained:
CD8+ CTL clone SKH-13 = format: cell-based, human
CTL [1] = assay: Mitochondrial potential of CTL by MitoTracker Red CMXRos flow cytometry; format: cell-based, human; settings: 1 μM, 4 h, CTL without fibroblasts
Method: Mitochondrial potential was assessed in untreated CTL, CTL treated with 1 μM staurosporine (Sigma, St. Louis, Mo.) for 4 h, CTL incubated with uninfected fibroblasts (control) for 4 h, and CTL incubated with HSV-infected fibroblasts (inactivated) for 4 h. CTL were then stained using MitoTracker® Red CMXRos as per the manufacturer's instructions (Molecular Probes, Inc., Eugene, Oreg.). Control and inactivated CTL were also stained with antibody against CD95/Fas (clone DX2, Dako, Carpinteria, Calif.) and with the DNA-binding dye 7-amino-actinomycin D (7-AAD, Sigma, St. Louis, Mo.) and analyzed by flow cytometry.

HSV-2 = assay: Quantitative real-time PCR (TaqMan) of HSV levels in fibroblasts and CTL; format: cell-based
Method: Quantitative Real-Time PCR Using TaqMan® Chemistry: CTL were incubated with uninfected or HSV-infected fibroblasts for 4 h, removed by aspiration, and incubated for 5 h at 37° C. In the acyclovir group, fibroblasts were treated with 50 μM acyclovir for 2 h prior to infecting with HSV for 6 h. Removed CTL were then incubated with CD8-conjugated Dynabeads® (Dynal A.S., Oslo, Norway) for 30 m rocking at 4° C. and washed as directed by the manufacturer. DNA was purified from uninfected fibroblasts, HSV-infected fibroblasts, and CD8 enriched CTL using DNeasy® Tissue Kits (Qiagen, Valencia, Calif.). DNA was quantified by spectrophotometry and used as template in TaqMan® real-time PCR reactions with primers and fluorogenic probes specific for the HSV glycoprotein B gene or the cellular beta-globin gene. Reactions were carried out using an ABI 7700 Sequencer (Applied Biosystems, Foster City, Calif.), and the sequences and concentrations of the primers and probes used were as previously described (Liu et al., J. Virol. 75:11178, 2001).
The most sensitive technique available to detect the presence of HSV is real-time, quantitative PCR. Primers and probes against a viral gene (gB) and a cellular gene (beta globin) were used to determine the number of HSV copies per cell in HSV-infected fibroblasts and in inactivated CTL. […]

T cells = format: cell-based, human
CTL [2] = assay: Redirected cell lysis of 51Cr-labeled FcγR+ P815 target cells by anti-CD3-labeled CTL; format: cell-based, human; settings: antibody 1 μg/ml for 15 m; control vs inactivated CTL; 5 h
HSV-inactivated T cells = format: cell-based, human

C[C@@H]1C[C@@H]([C@H](O)CC2CC(=O)NC(=O)C2)C(=O)[C@@H](C)C1 [CHX, cyclohexamide]
Effect on HSV-mediated inactivation of CTL (CD8+ CTL clone SKH-13; CTL (5 h prior) or targets exposed to 10 μg/ml): no effect on HSV-mediated inactivation | Effect on HSV-mediated inactivation of CTL (CD8+ CTL clone SKH-13; fibroblasts treated with 10 μg/ml for 10 h prior to infection): abolished HSV-mediated inactivation

CN[C@@H]1C[C@H]2O[C@@](C)([C@@H]1OC)n1c3ccccc3c3c4c(c5c6ccccc6n2c5c31)C(=O)NC4 [staurosporine]
CMXRos signal (mitochondrial membrane potential) in CTL (CTL [1]): significant decrease in the CMXRos signal

Nc1nc2c(ncn2COCCO)c(=O)[nH]1 [acyclovir]
# HSV Copies/cell (HSV-2; CTL incubated 4 h on HSV-2-infected fibroblasts treated with 50 μM acyclovir, CD8-bead enriched): 0.16 Copies/cell | HSV copies detected per CTL (HSV-2; fibroblasts treated with 50 μM acyclovir prior to infection, inactivated CTL): 1 copy of HSV was detected per 6 CTL

C/C=C/[C@H]1O[C@@](O)([C@@H](C)[C@H](O)[C@H](C)[C@H]2OC(=O)/C(OC)=C/C(C)=C/[C@@H](C)[C@@H](O)[C@@H](CC)[C@@H](O)[C@H](C)C/C(C)=C/C=C/[C@@H]2OC)C[C@@H](O)[C@@H]1C [concanamycin]
51Cr release from target cells by SKH-13 CTL clone (CD8+ CTL clone SKH-13): prevented ^51Cr release from target cells

OKT3: monoclonal antibody raised against CD3 (clone OKT3, Ortho-McNeil)
TNF-α and IFN-γ synthesis by inactivated T cells (T cells): failed to synthesize TNF-α and IFN-γ | Lytic granule release via redirected lysis (CTL [2]): Control but not inactivated CTL were capable of lytic granule release

IL-15: human recombinant IL-15 (Peprotech)
Restoration of lytic function to HSV-inactivated T cells (HSV-inactivated T cells): not to restore lytic function

B1: IL-7: human recombinant IL-7 (RnDSystems) (protein, UniProt P13232 26-177, looked up)
Interleukin-7: DCDIEGKDGKQYESVLMVSIDQLLDSMKEIGSNCLNNEFNFFKRHICDANKEGMFLFRAARKLRQFLKMNSTGDFDLHLLKVSEGTTILLNCTGQVKGRKPAALGEAQPTKSLEENKSLKEQKKLNDLCFLKRLLQEIKTCWNKILMGTKEH
Restoration of lytic function to HSV-inactivated T cells (HSV-inactivated T cells): not to restore lytic function
